A short description of data set [1]: Antioxidant assay, DPPH method. As to conditions: 60 min. As to the method: (§1) XO inhibitory and antioxidant assays were performed in triplicate while antiproliferative assay was conducted in quadruplicate. For each assay, at least two independent experiments were performed. An initial screening at the concentration of 30 μM for all compounds under study was performed in each in vitro study. A second screening at 5 μM was performed for compounds that originated an inhibitory potential higher than 80% for the XO activity at 30 μM. Half-maximal inhibitory concentration (IC50) studies were performed for drugs used as a reference and for the most promising bis-thiobarbiturate in XO inhibitory, antioxidant, and cytotoxicity assays.
Antioxidant potential was spectrophotometrically evaluated by the 2,2-diphenyl-1-picrylhydrazyl (DPPH, Sigma-Aldrich, St. Louis, MO, USA) method. All solutions and dilutions were prepared in 99.5% ethanol before each experiment. For each assay, 100 μL of the test solution and 100 μL of DPPH solution (0.2 mM) were added to each well of a 96 wells Elisa microplate. […] After 60 min of incubation in dark at rt, the capacity of each compound to reduce DPPH was followed by measuring the absorbance at 517 nm. Ethanol was used as a negative control and Trolox as the positive control. To discount the absorbance of each compound at 517 nm, a blank was performed with 100 μL of each test compound and 100 μL of ethanol. The antioxidant capacity of each sample was calculated according to the following formula:% DPPH scavenging = [1 − (ABSsample − ABSblank of sample)/ABSnegative control] × 100
(§2) All in vitro results are expressed as mean values ± standard deviation (SD) of at least two independent determinations. The difference between groups was analyzed for each assay by Student’s t-test. The IC50 values were calculated by sigmoidal fitting analysis considering a 95% confidence interval.
(In general: Loss of DPPH colour is used to gauge radical scavenging.)

The subject of data set [2] is NHDF cells (non-tumor human dermal fibroblasts). The experiment in a line: Cytotoxicity assay (MTT) on NHDF. The data set is classed as cell-based. How it is done: as §1
(§3) The cytotoxic potential of the compounds being studied was evaluated by quantifying the extent of the reduction of 3-(4,5-dimethylthiazol-2-yl)-2,5-diphenyltetrazolium bromide (MTT, VWR, Radnor, PA, USA) on tumor cell lines of the colon (Caco-2) and breast (MCF-7) adenocarcinoma and non-tumor human dermal fibroblasts (NHDF). All cell lines were obtained from the American Type Culture Collection (ATCC, Manassas, VA, USA) and were maintained in 75 cm^2 culture flasks in a humidified air incubator with 5% CO2 at 37 °C. NHDF cells have grown in RPMI 1640 medium (Sigma-Aldrich, St. Louis, MO, USA) supplemented with 10% fetal bovine serum (FBS), 10 mM 4-(2-hydroxyethyl)-1-piperazineethanesulfonic acid (HEPES), 2 mM L-glutamine, 1 mM sodium pyruvate, and 1% antibiotic/antimycotic (Ab: 10,000 units/mL penicillin G, […] streptomycin and 25 μg/mL amphotericin B). MCF-7 cells were cultured in high-glucose Dulbecco’s modified Eagle medium (DMEM, Sigma-Aldrich, St. Louis, MO, USA) supplemented with 10% FBS, and 1% Ab. The Caco-2 cell line was cultured in a high glucose DMEM supplemented with 20% FBS and 1% of the antibiotic mixture (Sp: 10,000 units/mL penicillin G and […] of streptomycin). For the assay, cells were seeded in 96-well plates (2 × 10^4 cells/mL) in the culture medium. After 48 h of adherence, cells were treated with the test solutions and incubated for 72 h. […] Untreated cells were used as a negative control and 5-FU as the positive control. Following incubation, the medium was removed and replaced with a fresh incomplete culture medium (without FBS and Ab or Sp) and MTT solution [5 mg/mL in phosphate buffer saline (PBS)]. After further incubation for 4 h at 37 °C, the medium with MTT was removed, formazan crystals were dissolved in DMSO, and the absorbance was read at 570 nm. Results were expressed as the relative cell proliferation in comparison with the negative control cells.
as §2

The nature of data set [3]: Cytotoxicity assay (MTT) on NHDF. The data set is classed as cell-based, human. The conditions noted are these: human, NHDF cells (non-tumor human dermal fibroblasts), 72 h, MTT; for viability at 72 h, 30 µM: read-out: Cytotoxicity (% cell viability at 30 µM) NHDF. How it is done:
as §1, §3, §2

Data set [4] in a line: Cytotoxicity/antiproliferative assay (MTT) on MCF-7. The data set is classed as cell-based. The conditions noted are these: human, MCF-7 cells (breast adenocarcinoma), read-out: Cytotoxicity (% cell viability at 30 µM) MCF-7. How it is done: as §1, §3, §2
A short description of data set [5]: Cytotoxicity/antiproliferative assay (MTT) on Caco-2. The data set is classed as cell-based. The conditions noted are these: human, read-out: Cytotoxicity (% cell viability at 30 µM) Caco-2. As to the method: as §1, §3, §2
The target of another data set is T1, Xanthine oxidase (XO) (Bos taurus, UniProt P80457).
T1 construct: purchased Sigma-Aldrich X4875
Kind of data set: XO inhibitory assay (spectrophotometric quantification of uric acid formation at 295 nm). The data set is classed as biochemical. As to conditions: for inhibition at 5 µM / inhibition at 30 µM: read-out: XO inhibition (%). How it is done: XO inhibitory and antioxidant assays were performed in triplicate while antiproliferative assay was conducted in quadruplicate. For each assay, at least two independent experiments were performed. An initial screening at the concentration of 30 μM for all compounds under study was performed in each in vitro study. […] Half-maximal inhibitory concentration (IC50) studies were performed for drugs used as a reference and for the most promising bis-thiobarbiturate in XO inhibitory, antioxidant, and cytotoxicity assays.
The XO inhibitory activity was evaluated by spectrophotometric quantification of uric acid formation. The 50 mM dihydrogen phosphate buffer (pH 7.4) was used to dilute all solutions. For each assay performed, 50 μL of the test solution and 50 μL of the 0.1 U/mL XO (Sigma-Aldrich X4875, St. Louis, MO, USA) solution were added in each well of an Elisa microplate (96 wells) followed by 5 min of incubation at 37 °C. […] The reaction started with the addition of 150 μL of a xanthine solution (420 μM). The absorbance was recorded at a wavelength of 295 nm every minute for 10 min. To obtain only the absorbance associated with uric acid, a solution consisting of 50 μL of the test solution, 150 μL of the xanthine solution, and 50 μL of buffer were used as blank. […] For each compound, the percentage of enzyme inhibition was calculated according to the following formula:% of XO inhibition = [1 − (ABSsample − ABSblank of sample)/ABSnegative control] × 100
as §2

T1 sequence (P80457 whole entry): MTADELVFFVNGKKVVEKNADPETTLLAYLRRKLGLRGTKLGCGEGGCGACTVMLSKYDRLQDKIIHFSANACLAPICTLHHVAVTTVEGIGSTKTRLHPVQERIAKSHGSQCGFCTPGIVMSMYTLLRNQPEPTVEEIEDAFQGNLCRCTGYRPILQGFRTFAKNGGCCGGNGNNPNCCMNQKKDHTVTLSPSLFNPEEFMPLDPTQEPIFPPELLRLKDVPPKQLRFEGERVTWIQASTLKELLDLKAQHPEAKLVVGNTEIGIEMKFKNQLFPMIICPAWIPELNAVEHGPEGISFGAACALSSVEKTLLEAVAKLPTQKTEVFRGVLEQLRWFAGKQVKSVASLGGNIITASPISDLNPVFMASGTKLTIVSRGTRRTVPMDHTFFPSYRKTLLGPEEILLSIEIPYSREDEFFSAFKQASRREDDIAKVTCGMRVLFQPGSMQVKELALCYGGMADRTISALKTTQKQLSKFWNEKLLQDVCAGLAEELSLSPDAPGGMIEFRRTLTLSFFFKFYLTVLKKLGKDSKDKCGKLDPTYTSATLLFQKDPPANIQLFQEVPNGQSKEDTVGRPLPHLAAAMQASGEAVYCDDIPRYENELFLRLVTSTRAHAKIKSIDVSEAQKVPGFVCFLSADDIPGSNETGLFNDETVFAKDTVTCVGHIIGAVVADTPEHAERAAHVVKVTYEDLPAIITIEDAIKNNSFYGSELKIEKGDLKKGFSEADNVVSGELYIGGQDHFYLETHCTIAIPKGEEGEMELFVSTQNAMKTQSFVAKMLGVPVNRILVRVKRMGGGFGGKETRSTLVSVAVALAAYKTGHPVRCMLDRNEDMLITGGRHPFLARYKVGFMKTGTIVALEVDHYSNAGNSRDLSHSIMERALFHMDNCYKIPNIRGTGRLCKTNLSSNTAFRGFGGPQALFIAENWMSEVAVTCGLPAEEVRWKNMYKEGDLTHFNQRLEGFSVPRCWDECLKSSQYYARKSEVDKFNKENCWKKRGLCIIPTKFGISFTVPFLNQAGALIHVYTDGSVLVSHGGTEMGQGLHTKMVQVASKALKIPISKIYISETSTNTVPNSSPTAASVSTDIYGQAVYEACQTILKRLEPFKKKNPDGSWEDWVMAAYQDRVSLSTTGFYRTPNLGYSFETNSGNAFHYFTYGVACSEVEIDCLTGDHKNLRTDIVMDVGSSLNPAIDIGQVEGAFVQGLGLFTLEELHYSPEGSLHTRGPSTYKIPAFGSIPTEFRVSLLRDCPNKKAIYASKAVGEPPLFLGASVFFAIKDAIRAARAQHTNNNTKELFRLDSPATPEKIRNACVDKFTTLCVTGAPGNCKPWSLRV

What is called IC50 is the concentration at which inhibition is half-maximal. By viability is commonly meant a per cent measure of how many cells are alive, often set against a control. Usually inhibition stands for how much of the control response was suppressed. With `CCn1c(O)c(C(c2ccc(Br)cc2)c2c(O)n(CC)c(=S)n(CC)c2=O)c(=O)n(CC)c1=S` [Compound 11, 5,5′-((4-Bromophenyl)methylene)bis(1,3-diethyl-6-hydroxy-2-thioxo-2,3-dihydropyrimidin-4(1H)-one)], the “DPPH (% scavenging at 30 µM)” value in data set [1] turned out to be 57.25 ± 0.98%. In addition, the IC50 in data set [1] (read-out: DPPH Scavenging IC50) was found to be 24.7 ± 0.88 µM. Also, in data set [2] (NHDF cytotoxicity versus DPPH scavenging), the “selectivity index for DPPH scavenging activity” value is 3.77. Further, the “selectivity index for XO inhibition” value in data set [2] (NHDF cytotoxicity versus XO inhibition) is reported as 52.04. Moreover, in data set [3], the viability at 72 h, 30 µM came out at 94.3 ± 7.84% and the IC50 at 72 h was determined as 93.2 ± 5.54 µM. For the same compound, the viability at 72 h, 30 µM in data set [4] was found to be 92.2 ± 3.68%. The viability at 72 h, 30 µM in data set [5] was found to be 72.3 ± 9.76%. Besides, at Xanthine oxidase (XO), the IC50 was 1.79 ± 0.07 µM, the inhibition at 5 µM is 80.9% and the inhibition at 30 µM was found to be 95.7%.

As usually defined, the melting point is the temperature, or range, at which the solid turns liquid. The compound `CCn1c(O)c(C(c2ccc(N(C)C)cc2[N+](=O)[O-])c2c(O)n(CC)c(=S)n(CC)c2=O)c(=O)n(CC)c1=S` [Compound 14, 5,5′-((4-(Dimethylamino)-2-nitrophenyl)methylene)bis(1,3-diethyl-6-hydroxy-2-thioxo-2,3-dihydropyrimidin-4(1H)-one)] returned a melting point of 143 to 145 °C. Moreover, the “DPPH (% scavenging at 30 µM)” value in data set [1] was determined as 28.04 ± 0.25%. Also, the viability at 72 h, 30 µM in data set [3] was found to be 80.1 ± 7.69%. The viability at 72 h, 30 µM in data set [4] amounted to 88.1 ± 3.25%. Besides, the viability at 72 h, 30 µM in data set [5] amounted to 97.2 ± 2.97%. On Xanthine oxidase (XO), the inhibition at 5 µM is 56.3 ± 1.21% and the inhibition at 30 µM was 90.7 ± 0.71%.

As to `CCn1c(O)c(C(c2ccc([N+](=O)[O-])cc2[N+](=O)[O-])c2c(O)n(CC)c(=S)n(CC)c2=O)c(=O)n(CC)c1=S` [Compound 15, 5,5′-((2,4-Dinitrophenyl)methylene)bis(1,3-diethyl-6-hydroxy-2-thioxo-2,3-dihydropyrimidin-4(1H)-one)], the melting point lay in the range of 169 to 170 °C. Further, in data set [1], the “DPPH (% scavenging at 30 µM)” value is reported as 32.33 ± 0.48%. Moreover, the viability at 72 h, 30 µM in data set [3] amounted to 91.2 ± 7.77%. For the same compound, in data set [4], the viability at 72 h, 30 µM stood at 91.2 ± 4.26%. In addition, the viability at 72 h, 30 µM in data set [5] is 96.9 ± 4.73%. At Xanthine oxidase (XO), the inhibition at 30 µM came to 14.9%.

Take `CCn1c(O)c(C(c2cc(O)ccc2[N+](=O)[O-])c2c(O)n(CC)c(=S)n(CC)c2=O)c(=O)n(CC)c1=S` [Compound 16, 5,5′-((5-Hydroxy-2-nitrophenyl)methylene)bis(1,3-diethyl-6-hydroxy-2-thioxo-2,3-dihydropyrimidin-4(1H)-one)]: the melting point is 167 to 169 °C. The “DPPH (% scavenging at 30 µM)” value in data set [1] is on record as 31.35 ± 0.91%. Further, the viability at 72 h, 30 µM in data set [3] stood at 60.7 ± 1.72%. In addition, the viability at 72 h, 30 µM in data set [4] came to 91.1 ± 2%. Moreover, the viability at 72 h, 30 µM in data set [5] turned out to be 95.4 ± 3.3%. Also, the inhibition at 30 µM on Xanthine oxidase (XO) was determined as 61.4%.

Compound `CCn1c(O)c(C(c2cc3c(cc2[N+](=O)[O-])OCO3)c2c(O)n(CC)c(=S)n(CC)c2=O)c(=O)n(CC)c1=S` [Compound 17, 5,5′-((6-Nitrobenzo[d][1,3]dioxol-5-yl)methylene)bis(1,3-diethyl-6-hydroxy-2-thioxo-2,3-dihydropyrimidin-4(1H)-one)] showed a melting point of 148 to 149 °C. Besides, the “DPPH (% scavenging at 30 µM)” value in data set [1] is listed as 40.90 ± 0.65%. Also, the viability at 72 h, 30 µM in data set [3] came out at 68.9 ± 9.33%. The viability at 72 h, 30 µM in data set [4] was determined as 86.6 ± 5.87%. Further, the viability at 72 h, 30 µM in data set [5] was 88.7 ± 7.85%. For the same compound, on Xanthine oxidase (XO), the inhibition at 5 µM came to 55.2 ± 1.63% and the inhibition at 30 µM is 90.8 ± 2.87%.

Take `CCn1c(O)c(C(C(C)=Cc2ccccc2)c2c(O)n(CC)c(=S)n(CC)c2=O)c(=O)n(CC)c1=S` [Compound 18, 5,5′-(2-Methyl-3-phenylprop-2-ene-1,1-diyl)bis(1,3-diethyl-6-hydroxy-2-thioxo-2,3-dihydropyrimidin-4(1H)-one)]: the melting point was 145 to 146 °C. Further, the “DPPH (% scavenging at 30 µM)” value in data set [1] was determined as 31.04 ± 0.66%. Besides, in data set [3], the viability at 72 h, 30 µM worked out at 86.5 ± 2.38%. In addition, the viability at 72 h, 30 µM in data set [4] amounted to 88.3 ± 3.29%. The viability at 72 h, 30 µM in data set [5] was 94.7 ± 7.19%. At Xanthine oxidase (XO), the inhibition at 5 µM is 63.4 ± 2.1% and the inhibition at 30 µM turned out to be 98.85 ± 0.82%.

For the compound `CCn1c(O)c(C(c2cccnc2)c2c(O)n(CC)c(=S)n(CC)c2=O)c(=O)n(CC)c1=S` [Compound 19, 5,5′-(Pyridin-3-ylmethylene)bis(1,3-diethyl-6-hydroxy-2-thioxo-2,3-dihydropyrimidin-4(1H)-one)], the melting point lay in the range of 253 to 254 °C. For the same compound, in data set [1], the “DPPH (% scavenging at 30 µM)” value was determined as 3.83 ± 2.44%. Besides, the viability at 72 h, 30 µM in data set [3] came to 81 ± 3.57%. The viability at 72 h, 30 µM in data set [4] was found to be 93.7 ± 5.68%. The viability at 72 h, 30 µM in data set [5] is 80.7 ± 13%. Further, at Xanthine oxidase (XO), the inhibition at 5 µM turned out to be 67.3 ± 1.27% and the inhibition at 30 µM worked out at 91.7 ± 1.87%.

(Values after paper PMC8533253, “Bis-thiobarbiturates as Promising Xanthine Oxidase Inhibitors: Synthesis and Biological Evaluation” (Biomedicines, 2021).)
